30 compounds from patent US7902181B2, “Compounds 010” (AstraZeneca AB, priority 2007, dated 2011) can be followed below.

Structures are written as SMILES. Where a name gives a salt, the structure may show the parent alone.

Chain of Recombinant Human (rh) DPP1 (P53634 25-463): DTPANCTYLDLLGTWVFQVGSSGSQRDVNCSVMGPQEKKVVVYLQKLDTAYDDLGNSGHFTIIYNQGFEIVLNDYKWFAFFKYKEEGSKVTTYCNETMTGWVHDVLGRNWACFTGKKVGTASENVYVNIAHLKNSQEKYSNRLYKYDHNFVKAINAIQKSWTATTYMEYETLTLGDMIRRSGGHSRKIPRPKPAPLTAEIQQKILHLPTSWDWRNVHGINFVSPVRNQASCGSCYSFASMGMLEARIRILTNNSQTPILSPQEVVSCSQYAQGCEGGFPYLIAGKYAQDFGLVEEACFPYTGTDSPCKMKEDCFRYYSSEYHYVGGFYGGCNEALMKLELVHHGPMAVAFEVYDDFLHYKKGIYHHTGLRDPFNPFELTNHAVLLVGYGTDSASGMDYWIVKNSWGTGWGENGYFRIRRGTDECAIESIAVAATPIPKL

The assay concerns the target Recombinant Human (rh) DPP1 (Homo sapiens, UniProt P53634). As to the kind of experiment: Fluorescence Assay for Recombinant Human (rh) DPP1. The format is biochemical. To be noted: rhDPP1; substrate H-Gly-Arg-AMC; pH5.0; 30 min pre-incubation, 60 min reaction at 22° C.; highest concentration 10 μM; read-out: DPP1 activity, pIC50 (converted). The method, then:
Fluorescence Assay for Recombinant Human (rh) DPP1
The activity of DPP1 was determined by measuring the enzymatic release of aminomethyl coumarin (AMC) from the peptide substrate (H-Gly-Arg-AMC), which leads to an increase in fluorescence intensity at λex=350 nm and λem=450 nm. The assay was carried out in black 384 well plates in a final volume of 50 μl at 22° C. The assay conditions contained the following: 25 mM piperazine buffer pH5.0; 50 mM NaCl, 5 mM DTT; 0.01% (v/v) Triton X-100; 100 μM H-Gly-Arg-AMC and rhDPP1 ([…]). Potential inhibitors were made up in DMSO and then diluted in the assay to give a final concentration of 1% (v/v) DMSO. A 12-point half-log dilution of the inhibitors (highest concentration 10 μM) was tested and the pIC50 determined using a 4-parameter logistic equation in a non-linear curve fitting routine. A standard DPP1 inhibitor (vinyl sulfone, see below) was used as a positive control in the assay. Routinely, inhibitors were pre-incubated with rhDPP1 for 30 min prior to the addition of the peptide substrate to start the reaction for a further 60 min at 22° C. After that the plates were immediately read in a fluorescence plate reader using the above emission and excitation wavelengths [modified from Kam, C M, Gotz, M G, Koot, G, McGuire, M J, Thiele, D L, Hudig, D & Powers, J C (2004). Arch Biochem Biophys, 427, 123-134 & McGuire, M J, Lipsky, P E & Thiele, D L (1992). Arch Biochem Biophys, 295, 280-288].
For the compound `Cn1cc(-c2ccc(C[C@@H](C#N)NC(=O)[C@@H]3CCCCN3)cc2)cn1` [Example 26, (2S)-N-[(1S)-1-Cyano-2-[4-(1-methylpyrazol-4-yl)phenyl]ethyl]piperidine-2-carboxamide trifluoroacetate], the IC50 is 63.1 nM.
With `CSc1cccc(-c2ccc(C[C@@H](C#N)NC(=O)[C@@H]3CCCCN3)cc2)c1` [Example 22, (2S)-N-[(1S)-1-Cyano-2-[4-(3-methylsulfanylphenyl)phe-nyl]ethyl]piperidine-2-carboxamide trifluoroacetate], the IC50 was 63.1 nM.
To `CS(=O)(=O)c1ccc(-c2ccc(C[C@@H](C#N)NC(=O)[C@@H]3CCCCN3)cc2)cc1C#N` [Example 64, (S)-N-((S)-1-Cyano-2-(3′-cyano-4′-(methylsulfonyl)biphenyl-4-yl)ethyl)piperidine-2-carboxamide] belongs 10 nM; to `CC(=O)Nc1cccc(-c2ccc(C[C@@H](C#N)NC(=O)[C@@H]3CCCCN3)cc2)c1` [Example 8, (S)-N-((S)-2-(3′-Acetamidobiphenyl-4-yl)-1-cyanoethyl)piperidine-2-carboxamide Trifluoroacetate], 126 nM; to `N#C[C@H](Cc1ccc(-c2ccc3c(c2)sc(=O)n3CCO)cc1)NC(=O)[C@@H]1CCCCN1` [Example 99, (S)-N-((S)-1-Cyano-2-(4-(3-(2-hydroxyethyl)-2-oxo-2,3-dihydrobenzo[d]thiazol-6-yl)phenyl)ethyl)piperidine-2-carboxamide], 63.1 nM.
Take `N#Cc1ccc(-c2cccc(C[C@@H](C#N)NC(=O)[C@@H]3CCCCN3)c2)cc1` [Example 100, (S)-N-((S)-1-Cyano-2-(4′-cyanobiphenyl-3-yl)ethyl)piperidine-2-carboxamide Trifluoroacetate]: the IC50 is 1000 nM.
For `CN1Cc2cc(-c3ccc(C[C@@H](C#N)NC(=O)[C@@H]4CCCCN4)cc3)ccc2S1(=O)=O` [Example 69], the IC50 is 12.6 nM.
Regarding `CS(=O)(=O)NCc1cccc(-c2ccc(C[C@@H](C#N)NC(=O)[C@@H]3CCCCN3)cc2)c1` [Example 89, (S)-N-((S)-1-Cyano-2-(3′-(methylsulfonamidomethyl)biphenyl-4-yl)ethyl)piperidine-2-carboxamide Trifluoroacetate], the IC50 was 63.1 nM.
For `Cn1c(=O)oc2ccc(-c3ccc(C[C@@H](C#N)NC(=O)[C@@H]4CCCCN4)cc3)cc21` [Example 96, (S)-N-((S)-1-Cyano-2-(4-(3-methyl-2-oxo-2,3-dihydrobenzo[d]oxazol-5-yl)phenyl)ethyl)piperidine-2-carboxamide], the IC50 was 7.94 nM.
As for `CS(=O)(=O)c1cc(-c2ccc(C[C@@H](C#N)NC(=O)[C@@H]3CCCCN3)cc2)ccc1C#N` [Example 58, (S)-N-((S)-1-Cyano-2-(4′-cyano-3′-(methylsulfonyl)biphenyl-4-yl)ethyl)piperidine-2-carboxamide], the IC50 is 15.8 nM.
Consider `N#C[C@H](Cc1ccc(-c2cccc(CO)c2)cc1)NC(=O)[C@@H]1CCCCN1` [Example 45, (2S)-N-[(1S)-1-Cyano-2-[4-[3-(hydroxymethyl)phenyl]phenyl]ethyl]piperidine-2-carboxamide trifluoroacetate], for which the IC50 is 794 nM.
Consider `N#C[C@H](Cc1ccc(-c2cccc(CN3CCCCC3)c2)cc1)NC(=O)[C@@H]1CCCCN1` [Example 2, (S)-N-((S)-1-Cyano-2-(3′-(piperidin-1-ylmethyl)biphenyl-4-yl)ethyl)piperidine-2-carboxamide di-trifluoroacetate], for which the IC50 was 79.4 nM.
In the case of `N#C[C@H](Cc1ccc(-c2cccc(CC(N)=O)c2)cc1)NC(=O)[C@@H]1CCCCN1` [Example 86, (S)-N-((S)-2-(3′-(2-amino-2-oxoethyl)biphenyl-4-yl)-1-cyanoethyl)piperidine-2-carboxamide Trifluoroacetate] it was 79.4 nM.
On to `COc1cccc(-c2ccc(C[C@@H](C#N)NC(=O)[C@@H]3CCCCN3)cc2)c1` [Example 15, (2S)-N-[(1S)-1-Cyano-2-(3′-methoxybiphenyl-4-yl)ethyl]piperidine-2-carboxamide Trifluoroacetate], for which the IC50 is 100 nM.
With `C[S+]([O-])c1cc(-c2ccc(C[C@@H](C#N)NC(=O)[C@@H]3CCCCN3)cc2)ccc1C(N)=O` (stereo partly drawn) [Example 61, (2S)-N-((1S)-2-(4′-Carbamoyl-3′-(methylsulfinyl)biphenyl-4-yl)-1-cyanoethyl)piperidine-2-carboxamide], the IC50 is 39.8 nM.
In the case of `N#C[C@H](Cc1ccc(-c2ccccc2O)cc1)NC(=O)[C@@H]1CCCCN1` [Example 48, (2S)-N-[(1S)-1-Cyano-2-[4-(2-hydroxyphenyl)phenyl]ethyl]piperidine-2-carboxamide trifluoroacetate], the IC50 is 1580 nM.
Consider `CN(C)S(=O)(=O)c1ccc(-c2ccc(C[C@@H](C#N)NC(=O)[C@@H]3CCCCN3)cc2)cc1` [Example 20, (2S)-N-[(1S)-1-Cyano-2-[4-[4-(dimethylsulfamoyl)phenyl]phenyl]ethyl]piperidine-2-carboxamide trifluoroacetate], for which the IC50 is 25.1 nM.
With `N#C[C@H](Cc1ccc(-c2ccc(S(=O)(=O)N3CCC3)cc2)cc1)NC(=O)[C@@H]1CCCCN1` [Example 72, (S)-N-((S)-2-(4′-(Azetidin-1-ylsulfonyl)biphenyl-4-yl)-1-cyanoethyl)piperidine-2-carboxamide Trifluoroacetate], the IC50 was 3.98 nM.
As for `CNC(=O)c1ccc(-c2ccc(C[C@@H](C#N)NC(=O)[C@@H]3CCCCN3)cc2)cc1` [Example 74, (S)-N-((S)-1-Cyano-2-(4′-(methylcarbamoyl)biphenyl-4-yl)ethyl)piperidine-2-carboxamide Trifluoroacetate], the IC50 is 100 nM.
For the compound `N#C[C@H](Cc1ccc(-c2ccc(C(N)=O)cc2)cc1)NC(=O)[C@@H]1CCCCN1` [Example 5, (S)-N-((S)-2-(4′-Carbamoylbiphenyl-4-yl)-1-cyanoethyl)piperidine-2-carboxamide Trifluoroacetate], the IC50 is 63.1 nM.
In the case of `N#Cc1cccc(-c2ccc(C[C@@H](C#N)NC(=O)[C@@H]3CCCCN3)cn2)c1` [Example 78, (S)-N-((S)-1-Cyano-2-(6-(3-cyanophenyl)pyridin-3-yl)ethyl)piperidine-2-carboxamide Trifluoroacetate], the IC50 is 100 nM.
Take `N#C[C@H](Cc1ccc(-c2cccnc2)cc1)NC(=O)[C@@H]1CCCCN1` [Example 10, (S)-N-((S)-1-Cyano-2-(4-(pyridin-3-yl)phenyl)ethyl)piperidine-2-carboxamide Trifluoroacetate]: the IC50 is 251 nM.
In the case of `CSc1cc(-c2ccc(C[C@@H](C#N)NC(=O)[C@@H]3CCCCN3)cc2)ccc1C#N` [Example 57, (S)-N-((S)-1-Cyano-2-(4′-cyano-3′-(methylthio)biphenyl-4-yl)ethyl)-piperidine-2-carboxamide] it was 3.16 nM.
In the case of `N#Cc1cccc(-c2ccc(C[C@@H](C#N)NC(=O)[C@@H]3CCN3)cc2)c1` [Example 19, (S)-N-((S)-1-Cyano-2-(3′-cyanobiphenyl-4-yl)ethyl)azetidine-2-carboxamide], the IC50 is 200 nM.
Turning to `N#C[C@H](Cc1ccc(-c2cccc(CN3CCOCC3)c2)cc1)NC(=O)[C@@H]1CCCCN1` [Example 109, (S)-N-((S)-1-Cyano-2-(3′-(morpholinomethyl)biphenyl-4-yl)ethyl)piperidine-2-carboxamide Ditrifluoroacetate], the IC50 is 158 nM.
In the case of `N#Cc1ccc(-c2ccc(C[C@@H](C#N)NC(=O)[C@@H]3CCCCN3)cc2)cc1F` [Example 56, (S)-N-((S)-1-Cyano-2-(4′-cyano-3′-fluorobiphenyl-4-yl)ethyl)piperidine-2-carboxamide] it was 10 nM; in that of `N#C[C@H](Cc1ccc(-c2ccc3c(c2)CCNC3)cc1)NC(=O)[C@@H]1CCCCN1` [Example 110, (S)-N-((S)-1-Cyano-2-(4-(1,2,3,4-tetrahydroisoquinolin-6-yl)phenyl)ethyl)piperidine-2-carboxamide Ditrifluoroacetate], 158 nM.
In the case of `CN(C)C(=O)c1cc(Cl)cc(-c2ccc(CC(C#N)NC(=O)[C@@H]3CCCCN3)cn2)c1` (mixture of isomers) [Example 81, (S)-N-((S)-2-(6-(3-Chloro-5-(dimethylcarbamoyl)phenyl)pyridin-3-yl)-1-cyanoethyl)piperidine-2-carboxamide Trifluoroacetate] it was 794 nM; in that of `N#C[C@H](Cc1ccc(-c2ccc(CN3CCOCC3)cc2)cc1)NC(=O)[C@@H]1CCCCN1` [Example 9, (S)-N-((S)-1-Cyano-2-(4′-(morpholinomethyl)biphenyl-4-yl)ethyl)piperidine-2-carboxamide Trifluoroacetate], 158 nM; in that of `CS(=O)(=O)c1cc(-c2ccc(C[C@@H](C#N)NC(=O)[C@@H]3CCCCN3)cc2)ccc1CC#N` [Example 101, (S)-N-((S)-1-Cyano-2-(4′-(cyanomethyl)-3′-(methylsulfonyl)biphenyl-4-yl)ethyl)-piperidine-2-carboxamide Trifluoroacetate], 39.8 nM.
